Results as given in US10358453B2, “Antiviral compounds” (priority 2015, dated 2019).
pEC50, pIC50: −log10 of the molar value.

How the values were obtained:
[1] = Cytotoxicity determination (CCK-8, without addition of virus); assay type: cell-based; conditions: human, HEp-2 cells (uninfected), no virus, Table C = greater than 100 μM, Table D = equal to or less than 100 μM and greater than 10 μM
Summary of the method: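 HEp-2 cells, no virus, exposed to compound from 100 μM in ½ serial dilutions (7 points, duplicate, 1% DMSO) for 5 days at 37° C, 5% CO2. Viability by CCK-8 (3-4 h) optical density; CC50 calculated.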

recombinant RSV complex = recombinant RSV complex (Human respiratory syncytial virus A, UniProt P28887); test: RSV polymerase inhibition assay; assay type: biochemical; conditions: 10 nM recombinant RSV complex, 2 h at 30° C.; Table E = <1 μM, Table F = <50 μM; read-out: IC50
Summary of the method: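 10 nM recombinant RSV polymerase complex in Tris-HCl pH7.5, 6 mM MgCl2 with RNA oligonucleotides and radionucleotides, incubated 2 h at 30° C with rising inhibitor concentrations. Stopped with EDTA; radiolabelled RNA product counted by scintillation; IC50 from sigmoidal non-linear regression.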

[2] = tested on: RSV subgenomic replicon 395 HeLa and APC126; test: RSV subgenomic replicon assay (Renilla luciferase); assay type: cell-based; conditions: human respiratory syncytial virus; RSV replicon cells (395 HeLa 7 days or APC126 3 days); Table G = less than 1 μM, Table H = equal to or higher than 1 μM and less than 50 μM
Summary of the method: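 Replicon cells (RSV with SH, G, F replaced by blasticidin resistance; 395 HeLa or BHK-derived APC126) exposed to 9-point 1:3 compound dilutions in 1% DMSO for 7 days (395 HeLa) or 3 days (APC126) at 37 °C. Renilla luciferase luminescence read; EC50 is concentration cutting signal 50% versus untreated cells.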

recombinant RSV complex, sequence (P28887 whole entry): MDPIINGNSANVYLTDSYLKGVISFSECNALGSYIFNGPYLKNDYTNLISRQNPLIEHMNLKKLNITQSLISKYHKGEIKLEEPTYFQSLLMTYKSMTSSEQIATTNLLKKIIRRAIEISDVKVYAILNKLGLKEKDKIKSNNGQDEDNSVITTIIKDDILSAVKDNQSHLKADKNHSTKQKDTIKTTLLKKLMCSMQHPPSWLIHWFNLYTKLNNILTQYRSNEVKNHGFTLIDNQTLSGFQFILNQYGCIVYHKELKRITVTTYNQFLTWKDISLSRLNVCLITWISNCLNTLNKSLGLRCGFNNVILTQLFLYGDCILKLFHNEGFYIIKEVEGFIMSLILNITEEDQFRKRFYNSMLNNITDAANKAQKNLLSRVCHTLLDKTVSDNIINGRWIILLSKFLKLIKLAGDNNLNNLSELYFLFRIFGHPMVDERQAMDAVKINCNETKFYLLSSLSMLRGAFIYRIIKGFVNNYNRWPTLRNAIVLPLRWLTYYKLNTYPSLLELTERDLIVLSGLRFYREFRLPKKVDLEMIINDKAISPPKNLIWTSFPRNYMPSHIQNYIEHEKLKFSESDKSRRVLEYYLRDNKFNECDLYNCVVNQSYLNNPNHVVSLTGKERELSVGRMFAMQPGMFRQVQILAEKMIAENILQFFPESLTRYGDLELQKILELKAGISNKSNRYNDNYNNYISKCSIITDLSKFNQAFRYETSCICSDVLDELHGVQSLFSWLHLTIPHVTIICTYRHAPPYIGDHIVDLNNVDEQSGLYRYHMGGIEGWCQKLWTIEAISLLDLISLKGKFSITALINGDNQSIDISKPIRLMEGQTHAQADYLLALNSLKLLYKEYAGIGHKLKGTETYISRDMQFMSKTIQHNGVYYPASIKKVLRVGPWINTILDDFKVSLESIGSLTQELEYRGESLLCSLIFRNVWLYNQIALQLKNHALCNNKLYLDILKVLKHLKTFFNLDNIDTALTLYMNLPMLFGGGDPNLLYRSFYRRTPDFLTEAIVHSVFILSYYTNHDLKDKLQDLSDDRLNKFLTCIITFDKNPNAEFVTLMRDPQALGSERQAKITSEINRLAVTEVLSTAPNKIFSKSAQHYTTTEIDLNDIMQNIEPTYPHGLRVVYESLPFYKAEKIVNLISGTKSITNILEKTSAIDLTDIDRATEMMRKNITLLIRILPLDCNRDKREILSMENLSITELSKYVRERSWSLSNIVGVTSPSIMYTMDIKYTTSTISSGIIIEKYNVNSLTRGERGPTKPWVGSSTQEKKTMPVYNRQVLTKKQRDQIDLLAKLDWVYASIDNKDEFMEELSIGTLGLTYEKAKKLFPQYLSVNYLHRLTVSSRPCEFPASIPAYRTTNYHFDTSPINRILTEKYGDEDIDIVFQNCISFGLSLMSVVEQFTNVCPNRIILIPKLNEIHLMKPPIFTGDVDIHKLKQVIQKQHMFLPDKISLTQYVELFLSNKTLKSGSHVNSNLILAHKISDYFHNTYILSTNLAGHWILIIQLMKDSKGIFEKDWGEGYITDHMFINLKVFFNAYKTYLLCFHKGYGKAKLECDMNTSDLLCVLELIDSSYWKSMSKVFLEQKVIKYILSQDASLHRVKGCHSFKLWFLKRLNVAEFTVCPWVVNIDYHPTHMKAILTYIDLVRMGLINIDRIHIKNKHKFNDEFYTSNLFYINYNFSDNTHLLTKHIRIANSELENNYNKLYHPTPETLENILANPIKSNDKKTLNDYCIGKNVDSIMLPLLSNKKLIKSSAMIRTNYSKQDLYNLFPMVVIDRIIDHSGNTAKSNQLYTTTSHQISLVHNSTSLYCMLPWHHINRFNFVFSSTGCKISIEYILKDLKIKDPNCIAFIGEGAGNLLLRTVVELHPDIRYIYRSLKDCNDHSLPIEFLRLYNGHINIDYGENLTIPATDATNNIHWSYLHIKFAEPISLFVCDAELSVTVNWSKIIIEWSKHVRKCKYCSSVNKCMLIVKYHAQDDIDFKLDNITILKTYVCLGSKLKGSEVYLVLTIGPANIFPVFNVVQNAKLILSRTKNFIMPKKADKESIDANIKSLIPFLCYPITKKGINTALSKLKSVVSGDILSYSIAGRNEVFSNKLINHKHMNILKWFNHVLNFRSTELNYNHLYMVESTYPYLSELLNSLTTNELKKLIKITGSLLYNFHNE
recombinant RSV complex, sequence (P03421 whole entry, further chain): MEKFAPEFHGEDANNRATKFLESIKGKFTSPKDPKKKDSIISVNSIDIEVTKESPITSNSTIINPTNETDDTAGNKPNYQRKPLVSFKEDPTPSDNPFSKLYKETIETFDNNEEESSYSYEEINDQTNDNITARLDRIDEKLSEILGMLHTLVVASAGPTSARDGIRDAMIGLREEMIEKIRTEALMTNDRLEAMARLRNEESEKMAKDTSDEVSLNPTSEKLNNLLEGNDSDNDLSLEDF

| Compound | CC50 at 5 days [1] | pIC50 (recombinant RSV complex) | pEC50 [2] |
| --- | --- | --- | --- |
| COc1cc(C(=O)NC[C@@](O)(c2cc(C3(C)CCN3)cc(-c3ccc(F)cc3)n2)C(F)(F)F)ccc1OC[C@@H](C)O (single isomer, unassigned) [Compound 15] | 10 to 100 µM | > 6.00 | > 6.00 |
| COc1cc(C(=O)NC[C@@](O)(c2cc3c(c(-c4ccc(F)cc4)n2)OC[C@@]3(C)NC2COC2)C(F)(F)F)ccc1OC[C@@H](C)O [Compound 131] | 10 to 100 µM | > 6.00 | > 6.00 |
| COc1cc(C(=O)NC[C@@](O)(c2cc3c(c(-c4ccc(F)cc4)n2)NC[C@@]3(C)N)C(F)(F)F)ncc1OCCO [Compound 75] | 10 to 100 µM | > 6.00 | > 6.00 |
| CC(C)(N)c1cc(-c2ccc(F)cc2)nc([C@@](O)(CNC(=O)c2ccc(OC3CC3)c(OCCO)c2)C(F)(F)F)c1 [Compound 59] | 10 to 100 µM | > 6.00 | > 6.00 |
| COc1cc(C(=O)NCC(O)(c2cc3c(c(-c4ccc(F)cc4)n2)OCC3(C)N)C(F)(F)F)ccc1OC(C)(C)CO (stereo not drawn) [Compound 125] | 10 to 100 µM | > 6.00 | > 6.00 |
| COc1nc(C(=O)NC[C@@](O)(c2cc3c(c(-c4ccc(F)cc4)n2)OC[C@@]3(C)N)C(F)(F)F)cc2c1NC(=O)C2 [Compound 93] | 10 to 100 µM | > 4.30 | 4.30 to 6.00 |
| COc1cc(C(=O)NC[C@@](O)(c2cc3c(c(-c4ccc(F)cc4)n2)OC[C@@]3(C)NC(C)=O)C(F)(F)F)ccc1OC[C@@H](C)O [Compound 85] | 10 to 100 µM | > 6.00 | > 6.00 |
| COc1cc(C(=O)NC[C@@](O)(c2cc3c(c(-c4ccc(F)cc4)n2)NC[C@@]3(C)N)C(F)(F)F)ccc1OCCO (single isomer, unassigned) [Compound 51] | > 100 µM | > 6.00 | > 6.00 |
| COc1cnc(C(=O)NCC(O)(c2cc3c(c(-c4ccc(F)cc4)n2)OCC3(C)N)C(F)(F)F)cc1OC (stereo not drawn) [Compound 20] | 10 to 100 µM | > 6.00 | > 6.00 |
| COc1cc(C(=O)NC[C@@](O)(c2cc3c(c(-c4ccc(F)cc4)n2)OC[C@@]3(C)NC(N)=O)C(F)(F)F)ccc1OC[C@@H](C)O [Compound 132] | 10 to 100 µM | > 6.00 | > 6.00 |
| COc1ccc(C(=O)NCC(O)(c2cc(C(C)(C)N)cc(-c3ccc(F)cc3)n2)C(F)(F)F)cc1OCCO (stereo not drawn) [Compound 37] | > 100 µM | > 6.00 | > 6.00 |
| COc1nc(C(=O)NCC(O)(c2cc3c(c(-c4ccc(F)cc4)n2)OCC3(C)N)C(F)(F)F)cc2c1NC(=O)C2 (stereo not drawn) [Compound 47] | 10 to 100 µM | > 6.00 | > 6.00 |
| COc1cc(C(=O)NC[C@@](O)(c2cc3c(c(-c4ccc(F)cc4)n2)OC[C@@]3(C)N)C(F)(F)F)cc2nc[nH]c12 [Compound 95] | 10 to 100 µM | > 6.00 | > 6.00 |
| COc1cc(C(=O)NCC(O)(c2cc3c(c(-c4ccc(F)cc4)n2)OCC3(C)N)C(F)(F)F)cc2c1NC(=O)CC2 (stereo not drawn) [Compound 11] | 10 to 100 µM | > 6.00 | > 6.00 |
| COc1cc(C(=O)NC[C@@](O)(c2cc3c(c(-c4ccc(F)cc4)n2)OC[C@@]3(C)NC(C)=N)C(F)(F)F)ccc1OC[C@@H](C)O [Compound 130] | > 100 µM | > 6.00 | > 6.00 |
| C[C@@]1(N)COc2c1cc([C@](O)(CNC(=O)c1cc(OC(F)F)c3[nH]ccc3c1)C(F)(F)F)nc2-c1ccc(F)cc1 [Compound 94] | 10 to 100 µM | > 6.00 | > 6.00 |
| COc1cc(C(=O)NC[C@@](O)(c2cc3c(c(-c4ccc(F)cc4)n2)OC[C@@]3(C)N)C(F)(F)F)cc(OC)c1CCCO [Compound 65] | 10 to 100 µM | > 6.00 | > 6.00 |

| Compound | CC50 at 5 days [1] | pIC50 (recombinant RSV complex) | pEC50 [2] |
| --- | --- | --- | --- |
| COc1cc(C(=O)NC[C@](O)(c2cc3c(c(-c4ccc(F)cc4)n2)NCC[C@]3(C)N)C(F)(F)F)ccc1OC[C@@H](C)O [Compound 101] | 10 to 100 µM | > 6.00 | > 6.00 |
| CC1(N)COc2c1cc(C(O)(CNC(=O)c1ccc(OCCO)c(OC3CC3)c1)C(F)(F)F)nc2-c1ccc(F)cc1 (stereo not drawn) [Compound 24] | 10 to 100 µM | > 6.00 | > 6.00 |
| COc1cc(C(=O)NC[C@@](O)(c2cc3c(c(-c4ccc(F)cc4)n2)N(C)C[C@@]3(C)N)C(F)(F)F)ccc1OCCO [Compound 79] | 10 to 100 µM | > 6.00 | > 6.00 |
| COc1ccc(C(=O)NCC(O)(c2cc3c(c(-c4ccc(F)cc4)n2)OCC3(C)N)C(F)(F)F)nc1OC (stereo not drawn) [Compound 112] | 10 to 100 µM | > 6.00 | > 6.00 |
| Cn1nc(C(F)(F)F)cc1C(=O)NCC(O)(c1cc2c(c(-c3ccc(F)cc3)n1)OCC2(C)N)C(F)(F)F (stereo not drawn) [Compound 114] | 10 to 100 µM | > 6.00 | > 6.00 |
| COc1cc(C(=O)NCC(O)(c2cc(C3(C)CCNCC3)cc(-c3ccc(F)cc3)n2)C(F)(F)F)ccc1OCCO (stereo not drawn) [Compound 117] | 10 to 100 µM | > 4.30 | 4.30 to 6.00 |
| COc1cc(C(=O)NC[C@@](O)(c2cc3c(c(-c4ccc(F)cc4)n2)OC[C@@]3(C)N)C(F)(F)F)cc2ccc(C(C)O)nc12 (stereo partly drawn) [Compound 91] | 10 to 100 µM | > 6.00 | > 6.00 |
| COc1ccc(C(=O)NCC(O)(c2cc3c(c(-c4ccc(F)cc4)n2)OCC3(C)N)C(F)(F)F)cc1OC1CC1 (stereo not drawn) [Compound 23] | 10 to 100 µM | > 6.00 | > 6.00 |
| COc1cc(C(=O)NCC(N)(c2cc(C(C)(C)N)cc(-c3ccc(F)cc3)n2)C(F)(F)F)ccc1OCCO (stereo not drawn) [Compound 40] | > 100 µM | > 6.00 | > 6.00 |
| COc1cc(C(=O)NC[C@@](O)(c2cc3c(c(-c4ccc(F)cc4)n2)NC[C@@]3(C)N)C(F)(F)F)ccc1OCC(N)=O [Compound 72] | > 100 µM | > 6.00 | > 6.00 |
| C[C@@]1(N)CNc2c1cc([C@](O)(CNC(=O)c1ccc3c(c1)CC(=O)N3)C(F)(F)F)nc2-c1ccc(F)cc1 [Compound 76] | 10 to 100 µM | > 6.00 | > 6.00 |
| COc1cc(C(=O)NC[C@@](O)(c2cc3c(c(-c4ccc(F)cc4)n2)OC[C@]3(N)C2CC2)C(F)(F)F)ccc1OC[C@@H](C)O (single isomer, unassigned) [Compound 106] | 10 to 100 µM | > 6.00 | > 6.00 |
| C[C@@H](O)COc1ccc(C(=O)NC[C@@](O)(c2cc3c(c(-c4ccc(F)cc4)n2)OC[C@@]3(C)N)C(F)(F)F)cc1Cl [Compound 113] | 10 to 100 µM | > 6.00 | > 6.00 |
| COc1cc(C(=O)NCC(O)(c2cc3c(c(-c4ccc(F)cc4)n2)OCC3(C)N)C(F)(F)F)ccc1OC(C)CO (stereo not drawn) [Compound 21] | 10 to 100 µM | > 6.00 | > 6.00 |
| CC(C)(N)c1cc(-c2ccc(F)cc2)nc(C(N)(CNC(=O)c2ccc(OC3CC3)c(OCCO)c2)C(F)(F)F)c1 (stereo not drawn) [Compound 41] | 10 to 100 µM | > 6.00 | > 6.00 |
| COc1cc(OCCO)cc(C(=O)NC[C@@](O)(c2cc3c(c(-c4ccc(F)cc4)n2)OC[C@@]3(C)N)C(F)(F)F)c1 [Compound 68] | 10 to 100 µM | > 6.00 | > 6.00 |
